From paper PMC10350927 (Journal of Medicinal Chemistry, 2023)
Numbering of substitutions follows the chain as printed. Structures can show the parent of a compound that is named as a salt. Marks after values point to notes of the source that are not given here. Each block holds one compound with its values, some of them ahead of it.

Key:
mSUCNR1 [1] = target: T1, mSUCNR1 (Mus musculus, UniProt Q99MT6); assay: cAMP assay, agonist potency at mSUCNR1; assay type: cell-based; design: expressed in transfected cells; host or cells: Flp-In T-REx 293; conditions: for cAMP mSUCNR1 pEC50: Flp-In T-REx 293 cells, mean ± SEM, minimum three independent experiments
T1 sequence (Q99MT6 1-317): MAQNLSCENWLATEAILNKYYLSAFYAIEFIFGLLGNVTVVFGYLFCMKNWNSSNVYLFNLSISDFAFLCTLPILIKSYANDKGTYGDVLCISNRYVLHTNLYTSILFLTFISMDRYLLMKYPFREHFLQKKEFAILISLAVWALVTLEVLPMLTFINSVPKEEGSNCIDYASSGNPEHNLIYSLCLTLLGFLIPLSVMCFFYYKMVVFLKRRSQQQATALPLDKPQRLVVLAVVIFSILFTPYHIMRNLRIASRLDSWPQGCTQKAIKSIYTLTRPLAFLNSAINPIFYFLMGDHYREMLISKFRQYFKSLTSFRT

mSUCNR1 [2] = target: T1, mSUCNR1; assay: BRET competition binding using 22 as tracer, mSUCNR1; conditions: 1 μM 22, Kd = […]; highest unlabeled ligand 30 μΜ
hSUCNR1 [3] = target: T2, hSUCNR1 (Homo sapiens, UniProt Q9BXA5); assay: BRET competition binding using 22 as tracer, hSUCNR1; conditions: 3 μM 22, Kd = 990 nM; mean ± SEM, three experiments
T2 sequence (Q9BXA5 1-334): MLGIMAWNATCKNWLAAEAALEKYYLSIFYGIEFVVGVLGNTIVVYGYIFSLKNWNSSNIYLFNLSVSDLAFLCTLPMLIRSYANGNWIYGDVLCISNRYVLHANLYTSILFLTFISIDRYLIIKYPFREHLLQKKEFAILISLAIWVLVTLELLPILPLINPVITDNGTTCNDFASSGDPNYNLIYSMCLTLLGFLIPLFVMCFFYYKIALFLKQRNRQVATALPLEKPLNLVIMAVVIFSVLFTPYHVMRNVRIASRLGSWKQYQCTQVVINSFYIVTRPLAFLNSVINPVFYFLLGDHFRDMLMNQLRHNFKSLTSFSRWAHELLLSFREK

hSUCNR1 [4] = target: T2, hSUCNR1; assay: BRET competition binding using 46 as tracer, hSUCNR1; conditions: […] 46, Kd = 310 nM
hmSUCNR1 [5] = target: T3, hmSUCNR1 (Mus musculus, UniProt Q99MT6, G84W/K269N/N18E); assay: BRET competition binding using 46 as tracer, hmSUCNR1
T3 sequence (Q99MT6 1-317 N18E/G84W/K269N): T1 sequence (Q99MT6 1-317) with N18E, G84W, K269N

hmSUCNR1 [6] = target: T3, hmSUCNR1; assay: BRET competition binding using 22 as tracer, hmSUCNR1
hSUCNR1 [7] = target: T2, hSUCNR1; assay: cAMP assay, inhibition of succinate response at hSUCNR1; assay type: cell-based; design: expressed in transfected cells; host or cells: Flp-In T-REx 293; conditions: for cAMP hSUCNR1 pIC50: inhibition of […] succinate response, mean ± SEM

SMILES: CC(C)(C)OC(=O)NCCCOc1ccc(-c2cccc(C(=O)N[C@@H](CC(=O)O)C(=O)O)n2)cc1 [Compound 15a, (6-(4-(3-((tert-Butoxycarbonyl)amino)propoxy)phenyl)picolinoyl)-L-aspartic acid]
cAMP mSUCNR1 pEC50 (mSUCNR1 [1]): 5.90 ± 0.08

Competion binding using 22 mSUCNR1 pKi (mSUCNR1 [2]): <4.5 ^d
SMILES: Cc1cc(Cl)ccc1-c1cccc(C(=O)Nc2ccccc2CC(=O)O)c1 [Compound 35, 2-(2-(4′-Chloro-2′-methyl-[1,1′-biphenyl]-3-carboxamido)phenyl)acetic acid]

SMILES: O=C(O)C[C@H](NC(=O)c1cccc(-c2ccc(OC(F)(F)F)cc2)n1)C(=O)O [Compound 3]
cAMP mSUCNR1 pEC50 (mSUCNR1 [1]): 6.58 ± 0.16
Competion binding using 22 mSUCNR1 pKi (mSUCNR1 [2]): 5.8 ± 0.1

SMILES: CCOc1ccc(-c2ccc(C(=O)N[C@@H](CC(=O)O)C(=O)O)o2)cc1 [Compound 2]
cAMP mSUCNR1 pEC50 (mSUCNR1 [1]): 7.01 ± 0.04
Competion binding using 22 mSUCNR1 pKi (mSUCNR1 [2]): 6.2 ± 0.1

SMILES: CC(C)(C)OC(=O)NCCNCCCCCCOc1ccc(-c2ccc(C(=O)N[C@@H](CC(=O)O)C(=O)O)o2)cc1 [Compound 17, (S)-N-(2-((tert-Butoxycarbonyl)amino)ethyl)-6-(4-(5-((1,2-dicarboxyethyl)carbamoyl)furan-2-yl)phenoxy)hexan-1-aminium 2,2,2-trifluoroacetate]
cAMP mSUCNR1 pEC50 (mSUCNR1 [1]): 7.40 ± 0.11

SMILES: NCCCCOc1ccc(-c2ccc(C(=O)N[C@@H](CC(=O)O)C(=O)O)o2)cc1 [Compound 9b, (5-(4-(4-Aminobutoxy)phenyl)furan-2-carbonyl)-L-aspartic acid hydrochloride]
cAMP mSUCNR1 pEC50 (mSUCNR1 [1]): 7.13 ± 0.06

Competion binding using 22 hSUCNR1 pKi (hSUCNR1 [3]): 4.1 ± 0.1
Competion binding using 46 hSUCNR1 pKi (hSUCNR1 [4]): 4.1 ± 0.3
SMILES: O=C(O)[C@H]1O[C@H]1C(=O)O [Compound 47, cis-epoxysuccinic acid]

Ki (hmSUCNR1 [5]): > 31600 nM
Competion binding using 22 hSUCNR1 pKi (hSUCNR1 [3]): 5.9 ± 0.5
Ki (hmSUCNR1 [6]): > 31600 nM
Competion binding using 22 mSUCNR1 pKi (mSUCNR1 [2]): <4.5 ^d
SMILES: O=C(O)CCc1cccc(Oc2ccc(Oc3cccc4cnccc34)cc2C(F)(F)F)c1 [Compound 48]

SMILES: CC(C)(C)OC(=O)NCCCCOc1ccc(-c2ccc(C(=O)N[C@@H](CC(=O)O)C(=O)O)o2)cc1 [Compound 8b, (5-(4-(4-((tert-Butoxycarbonyl)amino)butoxy)phenyl)furan-2-carbonyl)-L-aspartic acid]
cAMP mSUCNR1 pEC50 (mSUCNR1 [1]): 6.47 ± 0.18

SMILES: CC(C)(C)OC(=O)NCCCCCOc1ccc(-c2cccc(C(=O)N[C@@H](CC(=O)O)C(=O)O)n2)cc1 [Compound 15c, (6-(4-((5-((tert-Butoxycarbonyl)amino)pentyl)oxy)phenyl)picolinoyl)-L-aspartic acid]
cAMP mSUCNR1 pEC50 (mSUCNR1 [1]): 5.68 ± 0.11

SMILES: CC(C)(C)OC(=O)NCCCCCCOc1ccc(-c2cccc(C(=O)N[C@@H](CC(=O)O)C(=O)O)n2)cc1 [Compound 15d, (6-(4-((6-((tert-Butoxycarbonyl)amino)hexyl)oxy)phenyl)picolinoyl)-L-aspartic acid]
cAMP mSUCNR1 pEC50 (mSUCNR1 [1]): 5.76 ± 0.07

Competion binding using 22 mSUCNR1 pKi (mSUCNR1 [2]): <4.5 ^d
SMILES: Cc1cc(CN2CCN(C)CC2)ccc1-c1cccc(C(=O)Nc2ccccc2CC(=O)O)c1 [Compound 44, 4-((3′-((2-(Carboxymethyl)phenyl)carbamoyl)-2-methyl-[1,1′-biphenyl]-4-yl)methyl)-1-methylpiperazin-1-ium 2,2,2-trifluoroacetate]

SMILES: CC(C)(C)OC(=O)NCCCOc1ccc(-c2ccc(C(=O)N[C@@H](CC(=O)O)C(=O)O)o2)cc1 [Compound 8a, (5-(4-(3-((tert-Butoxycarbonyl)amino)propoxy)phenyl)furan-2-carbonyl)-L-aspartic acid]
cAMP mSUCNR1 pEC50 (mSUCNR1 [1]): 6.25 ± 0.09

SMILES: CC(C)(C)OC(=O)NCCCCCOc1ccc(-c2ccc(C(=O)N[C@@H](CC(=O)O)C(=O)O)o2)cc1 [Compound 8c, (5-(4-((5-((tert-Butoxycarbonyl)amino)pentyl)oxy)phenyl)furan-2-carbonyl)-L-aspartic acid]
cAMP mSUCNR1 pEC50 (mSUCNR1 [1]): 6.60 ± 0.16
fold decrease in potency on mSUCNR1 (mSUCNR1 [1]; relative to agonist scaffold 2): 2.5 fold

cAMP mSUCNR1 pEC50 (mSUCNR1 [1]): 6.91 ± 0.09
SMILES: NCCCCCOc1ccc(-c2ccc(C(=O)N[C@@H](CC(=O)O)C(=O)O)o2)cc1 [Compound 9c, (S)-5-(4-(5-((1,2-Dicarboxyethyl)carbamoyl)furan-2-yl)phenoxy)pentan-1-aminium 2,2,2-trifluoroacetate]

SMILES: CC(C)(C)OC(=O)NCCCCOc1ccc(-c2cccc(C(=O)N[C@@H](CC(=O)O)C(=O)O)n2)cc1 [Compound 15b, (6-(4-(4-((tert-Butoxycarbonyl)amino)butoxy)phenyl)picolinoyl)-L-aspartic acid]
cAMP mSUCNR1 pEC50 (mSUCNR1 [1]): 5.97 ± 0.09

cAMP mSUCNR1 pEC50 (mSUCNR1 [1]): 7.35 ± 0.05
SMILES: CNCCCCCCOc1ccc(-c2ccc(C(=O)N[C@@H](CC(=O)O)C(=O)O)o2)cc1 [Compound 20, (S)-6-(4-(5-((1,2-Dicarboxyethyl)carbamoyl)furan-2-yl)phenoxy)-N-methylhexan-1-aminium 2,2,2-trifluoroacetate]

fold increase in potency relative to 32 (hSUCNR1 [7]; hSUCNR1 cAMP): 3 fold
cAMP hSUCNR1 pIC50 (hSUCNR1 [7]): 6.78 ± 0.01
SMILES: Cc1ccc(C(=O)Nc2ccccc2CC(=O)O)cc1-c1ccc(Cl)cc1 [Compound 34, 2-(2-(4′-Chloro-6-methyl-[1,1′-biphenyl]-3-carboxamido)phenyl)acetic acid]

cAMP hSUCNR1 pIC50 (hSUCNR1 [7]): 6.31 ± 0.18
Ki (hmSUCNR1 [5]): 251 nM
Competion binding using 22 hSUCNR1 pKi (hSUCNR1 [3]): 7.8 ± 0.3
Ki (hmSUCNR1 [6]): 316 nM
fold lower affinity at hmSUCNR1 compared to hSUCNR1 (hmSUCNR1 [6]; competition binding): ~10 fold
Competion binding using 22 mSUCNR1 pKi (mSUCNR1 [2]): <4.5 ^d
Competion binding using 46 hSUCNR1 pKi (hSUCNR1 [4]): 7.6 ± 0.1
SMILES: O=C(O)Cc1ccccc1NC(=O)c1cccc(-c2ccc(Cl)cc2)c1 [Compound 32, 2-(2-(4′-Chloro-[1,1′-biphenyl]-3-carboxamido)phenyl)acetic acid]

SMILES: CC(C)(C)OC(=O)NCCN1CCN(Cc2ccc(-c3cccc(C(=O)Nc4ccccc4CC(=O)O)c3)cc2)CC1 [Compound 43, 1-(2-((tert-Butoxycarbonyl)amino)ethyl)-4-((3′-((2-(carboxymethyl)phenyl)carbamoyl)-[1,1′-biphenyl]-4-yl)methyl)piperazin-1-ium 2,2,2-trifluoroacetate]
cAMP hSUCNR1 pIC50 (hSUCNR1 [7]): 6.82 ± 0.02

cAMP mSUCNR1 pEC50 (mSUCNR1 [1]): 7.20 ± 0.02
SMILES: CN(C)CCCCCCOc1ccc(-c2ccc(C(=O)N[C@@H](CC(=O)O)C(=O)O)o2)cc1 [Compound 21, (S)-6-(4-(5-((1,2-Dicarboxyethyl)carbamoyl)furan-2-yl)phenoxy)-N,N-dimethylhexan-1-aminium 2,2,2-trifluoroacetate]

Competion binding using 22 mSUCNR1 pKi (mSUCNR1 [2]): 6.2 ± 0.1
SMILES: NCCCCCCOc1ccc(-c2ccc(C(=O)N[C@@H](CC(=O)O)C(=O)O)o2)cc1 [Compound 9d, (S)-6-(4-(5-((1,2-Dicarboxyethyl)carbamoyl)furan-2-yl)phenoxy)hexan-1-aminium 2,2,2-trifluoroacetate]

SMILES: CC(C)(C)OC(=O)NCCCCCCOc1ccc(-c2ccc(C(=O)N[C@@H](CC(=O)O)C(=O)O)o2)cc1 [Compound 8d, (5-(4-((6-((tert-Butoxycarbonyl)amino)hexyl)oxy)phenyl)furan-2-carbonyl)-L-aspartic acid]
cAMP mSUCNR1 pEC50 (mSUCNR1 [1]): 6.42 ± 0.11

SMILES: CC(C)(C)OC(=O)NCCOCCOc1ccc(-c2cccc(C(=O)N[C@@H](CC(=O)O)C(=O)O)n2)cc1 [Compound 15e, (6-(4-(2-(2-((tert-Butoxycarbonyl)amino)ethoxy)ethoxy)phenyl)picolinoyl)-L-aspartic acid]
cAMP mSUCNR1 pEC50 (mSUCNR1 [1]): 6.01 ± 0.18

cAMP mSUCNR1 pEC50 (mSUCNR1 [1]): 7.10 ± 0.11
SMILES: NCCCOc1ccc(-c2ccc(C(=O)N[C@@H](CC(=O)O)C(=O)O)o2)cc1 [Compound 9a, (S)-3-(4-(5-((1,2-Dicarboxyethyl)carbamoyl)furan-2-yl)phenoxy)propan-1-aminium 2,2,2-trifluoroacetate]
